The values that follow are results of earlier work, collected in patent publication US20140275235A1, “Treatment of Proliferative Disorders” (priority 2013, published 2014).

For the data set the following is noted: literature refs 11, 12.

Structures are written as SMILES. Where only a bound is given, the exact number is not on record here.

As to `C[S+]([O-])CCCCN=C=S` (centres unmarked) [SFN, sulforaphane], the Bioavailability is 80% and the “Time to peak plasma levels” value is at most 2 h.
